The values that follow come from PMC12736570, “The Absorption, Distribution, Excretion, and In Vitro Hepatic Microsomal Metabolism of the Novel CDK Compound XMD12 in Sprague-Dawley Rats” (Pharmaceutics, 2025).

Where “and” joins values, the source holds several entries; their conditions need not be identical. Identical values can stand only once. Like-named read-outs stand apart in the source and are kept apart here.

For data set [1] the following is noted: cited from earlier work.
In data set [2] the test system is plasma protein. Particulars: cited from earlier work.
The nature of data set [3]: Metabolic stability in rat liver microsome incubation system. Type of data set: in vitro ADME. Particulars: rat liver microsomes. As for the experimental part: Rat liver microsomes (CYP450) were introduced into centrifuge tubes containing phosphate buffer. Different concentrations of the test compound were added to the experimental group, while an equal amount of buffer was added to the control group. Following a 10-min pre-incubation, NADPH was introduced to initiate the reaction, and the mixture was then incubated at 37 °C in a water bath for […]. The incubation system was composed of 10 μL of XMD12 substrate (0.5 μg/mL), 5 μL of rat liver microsomes (20 mg/mL), 20 μL of an NADPH generating system at a final concentration of 1 mM, and 465 μL of phosphate-buffered saline (pH 7.4). The NADPH generating system was prepared by mixing with 5 μL of a complementary Mix solution prior to use. This Mix solution contained MgCl2, EDTA, glucose-6-phosphate, glucose-6-phosphate dehydrogenase, and oxidized nicotinamide adenine dinucleotide phosphate (NADP^+). At intervals of 0, 5, 15, 30, 45, 60, 90, and 120 min, the reaction was halted by adding a cold acetonitrile solution containing the internal standard at a 1:2 ratio. This mixture underwent vigorous vortexing for 3 min before being centrifuged at 14,000 rpm for 10 min. The resulting supernatant was dried using nitrogen gas and subsequently reconstituted with 50% acetonitrile. After thorough vortexing for 2 min, the solution underwent a second centrifugation at 14,000 rpm for 10 min, and the supernatant was then injected into LC-MS/MS for analysis.
In general terms: Liver microsomes are a subcellular fraction often used to study metabolism.

The nature of data set [4]: Tissue distribution study after gastric gavage. It counts as in vivo, Sprague-Dawley rats. Particulars: gastric gavage 20 mg/kg. As for the experimental part: Following a 12-h fasting period, 25 SD rats were randomly divided into 5 groups, each comprising 5 rats. These rats were administered the drug at a dosage of 20 mg/kg through gastric gavage. […] Blood was drawn from the abdominal aorta to ensure minimal residual blood within the rats, followed by euthanasia. A variety of tissues including the heart, liver, spleen, lungs, kidneys, stomach, small intestine, fat, muscles, and brain were then harvested. After weighing, all samples were stored in a freezer at −80 °C. The subsequent processing and analysis followed the described methods, aiming to determine the concentration of XMD12 in each tissue sample at different time intervals.

Data set [5] can be described thus: Urine and feces excretion study after gastric gavage. It counts as in vivo, Sprague-Dawley rats. Conditions: gastric gavage 20 mg/kg. Here is the method: Five male SD rats were housed individually in metabolic cages for adaptation for a day. During this period, urine and feces were collected as blank samples. The following day, the rats were orally administered XMD12 at a dose of 20 mg/kg by gastric gavage. Urine and feces samples were then collected at intervals of 0–4 h, 4–8 h, 8–12 h, 12–24 h, and 24–36 h post-administration. Measurements of volume and weight were recorded for each sample. Employing the outlined procedures, these samples underwent processing and analysis to determine the presence of XMD12 across different time spans within the collected urine and feces samples.

Data set [6] in a line: Plasma pharmacokinetics after single intravenous administration and gastric gavage. Type of data set: in vivo, Sprague-Dawley rats. Conditions: for AUC0-t / AUC0-∞ / CL / Cmax / MRT0-t / Tmax / V / t1/2: n = 5. As for the experimental part: Ten healthy SD rats were divided into two groups, each comprising five rats. Following a 12-h fasting period, the rats in the respective groups were administered XMD12 at dosages of 10 mg/kg via gastric gavage and 2 mg/kg via tail vein injection. The rats were anesthetized with isoflurane, and blood samples of approximately 150 uL were collected via the eye socket vein using capillaries. These samples were obtained prior to dosing (at 0 min) and at intervals of 0.083, 0.25, 0.5, 1, 1.5, 2.5, 4, 6, 8, 12 and 24 h post-dosing. The blood was then placed in centrifuge tubes pre-treated with heparin sodium, centrifuged at 3000 rpm for 10 min, and the resulting supernatant was stored in a refrigerator at −20 °C. The plasma samples underwent processing as per the outlined “Sample Preparation” methods and were analyzed using the specified procedures under “Instrument Conditions” to ascertain XMD12 concentration in the rat plasma at various time points. Utilizing DAS 3.2.8 (BioGuider Co., Shanghai, China), pharmacokinetic software facilitated data processing, computation of pertinent pharmacokinetic parameters, and the creation of blood concentration–time curves for the drug.

The nature of data set [7]: Stability of XMD12 QC samples in rat plasma and liver homogenate. It counts as in vitro ADME. The text has this: Our analytical approach adheres to a comprehensive set of validation procedures in accordance with the recommendations outlined in the U.S. Food and Drug Administration’s Bioanalytical Method Validation Guidance (USFDA, 2018). These validation steps encompass a range of critical factors, including method specificity, linearity, sensitivity, carryover effect, accuracy, precision, matrix effect, recovery, dilution integrity, and stability. In assessing the method’s selectivity, we initiated the process by comparing chromatograms obtained from various sample sources. These sources included blank rat plasma, blank rat serum samples spiked with a mixture of standards, and rat plasma samples sourced from pharmacokinetic studies conducted on rats. This evaluation concurrently aided us in identifying and addressing any potential interferences that may occur within the acquisition window of XMD12 and the internal standard (IS). To evaluate linearity, a series of XMD12 concentrations was introduced into blank plasma, allowing us to establish a linear regression equation. The calibration curve (n = 5) was constructed by plotting the ratio of peak areas of XMD12 to IS (y-axis) against the nominal concentration ratio of XMD12 to IS (x-axis), followed by subsequent linear regression analysis. The lower limit of quantification (LLOQ) was defined as the lowest concentration point on the calibration curve that guarantees reliable quantification while maintaining accuracy within the range of 80–120% and precision below 20%. We conducted assessments of intra-day and inter-day precision and accuracy by performing six replicate tests on quality control (QC) samples at concentrations of 3, 120, and 1500 ng/mL over both a single day and a span of three days. Matrix effects and extraction recovery were evaluated through a post-extraction addition approach. Furthermore, we conducted a study on the stability of QC samples with high, medium, and low concentrations under four distinct conditions. […]

Where [8] appears, read: p.o. 10 mg∙kg^−1 (gastric gavage), SD rats.

For `CCN1CCN(Cc2ccc(Nc3ncc(F)c(-c4cc(F)c5nc(C)n(C(C)C)c5c4)n3)nc2)CC1` [Abemaciclib], in data set [1], the elimination half-life was 17 to 38 h. In addition, in data set [1] (human, in vivo), the oral bioavailability is recorded as 45% and the Tmax (commonly the time from dosing to the highest level) is reported as “under 8 h”. The fecal excretion in data set [1] (reported in humans) was 81%. In data set [2] (plasma), the plasma protein binding was 96.3%.
In the case of `CC(=O)c1c(C)c2cnc(Nc3ccc(N4CCNCC4)cn3)nc2n(C2CCCC2)c1=O` [Palbociclib], in data set [1], the Tmax was 6 to 12 h, the elimination half-life was 24 to 34 h and the volume of distribution is on record as approximately 2800 L. In addition, the “volume of distribution (Vd)” value in data set [1] (reported in humans) was ~ 2800 L. In addition, in data set [2], the plasma protein binding was 85.3%.
Take `CN(C)C(=O)c1cc2cnc(Nc3ccc(N4CCNCC4)cn3)nc2n1C1CCCC1` [Ribociclib]: in data set [1] (human, in vivo), the oral bioavailability is 65.8%, the Tmax is 1 to 5 h, the elimination half-life was 30 to 55 h and the fecal excretion is 69.1%. The “volume of distribution (Vd)” value in data set [1] (human, in vivo) was 1090 L.
As to `COc1cc(F)ccc1-c1nc(Nc2cccc(N3CCOCC3)c2)ncc1F` [XMD12], the parent compound remaining was 68.8% in data set [3] (5 min incubation, 37 °C, NADPH); 20% in data set [3] (45 min incubation); 13% in data set [3] (120 min incubation). In data set [3] (120 min), this compound displayed a metabolic rate of 87%. The “intrinsic clearance (CLint)” value in data set [3] (CLint = k × (V/P), V 500 μL, P 0.1 mg) turned out to be 98.5 μL/min/mg protein. Besides, the “degradation rate constant (k)” value in data set [3] (regression of ln remaining percentage vs incubation time) worked out at 0.0197 min⁻¹. For the same compound, in data set [4], the “time to peak drug concentration in gastrointestinal tissues (stomach and intestines)” value was 0.5 to 1 h. The same compound had a brain concentration in data set [4] (1 h) of 930.17 ± 762.76 ng/g. The liver peak concentration in data set [4] (1 h, 20 mg/kg) is 24,768 ± 2436.62 ng/g and 24,768 ng/g. In data set [4] (5 h), the liver concentration is 2241.9 ± 1193.07 ng/g. The “liver concentration as percent of the peak value” in data set [4] (5 h post-dosing) is recorded as 9%. For the same compound, in data set [4] (by 5 h), the “concentration in all tissues as percent of peak levels” value is listed as “below 10%”. Besides, in data set [5], the “interval of rapid fecal elimination” value fell in the range of 12 to 24 h. The “peak urinary elimination window” value in data set [5] was 12 to 24 h. Further, the “cumulative fecal excretion (of the administered dose)” value in data set [5] (0–36 h) was 62.36% ± 19.97%. Moreover, in data set [5] (0–36 h, 20 mg/kg), the “cumulative urinary excretion rate” value is 0.0068% and 0.0068% ± 0.0028%. Also, the plasma concentration entry in data set [6] (gastric gavage 10 mg/kg, within 8 h) is listed as “approaching the LLOQ”; in data set [6] (i.v. 2 mg/kg, by 8 h) it was “below the lower limit of quantification (LLOQ)”; in data set [6] (i.v. 2 mg/kg, within 30 min) it was 59.88 ng/mL. The AUC0-t was determined as 357.21 ± 66.60 ng·h/mL in data set [6] (i.v. 2 mg∙kg^−1, SD rats) and 117.78 ± 28.97 ng·h/mL in data set [6] (setting [8]). The “AUC0-∞” value amounted to 360.03 ± 66.00 ng·h/mL in data set [6] (i.v. 2 mg∙kg^−1, SD rats) and 120.06 ± 30.19 ng·h/mL in data set [6] (setting [8]). In addition, the CL turned out to be 94.8 ± 15.8 mL/min/kg in data set [6] (i.v. 2 mg∙kg^−1, SD rats) and 1444 ± 278.7 mL/min/kg in data set [6] (setting [8]). In addition, the Cmax (in general, the highest concentration seen after dosing) in data set [6] (i.v. 2 mg∙kg^−1, SD rats) stood at 827.00 ± 191.30 ng/mL; in data set [6] (setting [8]) it was 38.26 ± 10.90 ng/mL. Also, the MRT0-t in data set [6] (i.v. 2 mg∙kg^−1, SD rats) is given as 0.74 ± 0.08 h; in data set [6] (setting [8]), 2.475 ± 0.344 h. Moreover, the Tmax in data set [6] (i.v. 2 mg∙kg^−1, SD rats) is 0.083 h; in data set [6] (setting [8]), 1.300 ± 0.758 h. For the same compound, the V in data set [6] (i.v. 2 mg∙kg^−1, SD rats) was 12.29 ± 3.98 L/kg; in data set [6] (setting [8]), 150.59 ± 34.37 L/kg. Moreover, the t1/2 was found to be 1.47 ± 0.29 h in data set [6] (i.v. 2 mg∙kg^−1, SD rats) and 1.21 ± 0.16 h in data set [6] (setting [8]). Moreover, in data set [6] (p.o. 10 mg/kg vs i.v. 2 mg/kg), the “peak concentration after gastric gavage relative to intravenous levels” value is “below 5%”. Moreover, in data set [6] (p.o. 10 mg∙kg^−1 vs i.v. 2 mg∙kg^−1, SD rats), the “F (bioavailability)” value was 6.67%. This compound showed a plasma half-life in data set [6] (rat plasma, route not stated) of 1 h. In addition, the “stability, Accuracy” value is reported as 100.93% in data set [7] (liver, nominal 30.0 ng∙mL^−1, 6 h at room temperature); 97.53% in data set [7] (liver, nominal 30.0 ng∙mL^−1, 15 d, −80 °C); 100.80% in data set [7] (liver, nominal 30.0 ng∙mL^−1, autosample at ambient temperature for 6 h); 100.47% in data set [7] (liver, nominal 30.0 ng∙mL^−1, freeze–thaw (3 circles)); 101.93% in data set [7] (liver, nominal 800.0 ng∙mL^−1, 6 h at room temperature); 99.40% in data set [7] (liver, nominal 800.0 ng∙mL^−1, 15 d, −80 °C). For the same compound, the “stability, Accuracy” value in data set [7] (liver, nominal 800.0 ng∙mL^−1, freeze–thaw (3 circles)) was 99.78%; in data set [7] (liver, nominal 1600.0 ng∙mL^−1, 6 h at room temperature) it was 101.56%; in data set [7] (liver, nominal 1600.0 ng∙mL^−1, 15 d, −80 °C) it was 101.63%; in data set [7] (liver, nominal 1600.0 ng∙mL^−1, autosample at ambient temperature for 6 h), 100.94%; in data set [7] (liver, nominal 1600.0 ng∙mL^−1, freeze–thaw (3 circles)) it was 97.75%; in data set [7] (plasma, nominal 5 ng∙mL^−1, 6 h at room temperature) it was 105.58%. Further, the “stability, Accuracy” value in data set [7] (plasma, nominal 5 ng∙mL^−1, 15 d, −80 °C) came out at 94.20%; in data set [7] (plasma, nominal 5 ng∙mL^−1, autosample at ambient temperature for 6 h), 92.16%; in data set [7] (plasma, nominal 5 ng∙mL^−1, freeze–thaw (3 circles)), 97.10%; in data set [7] (plasma, nominal 90 ng∙mL^−1, 6 h at room temperature) it was 108.60%; in data set [7] (plasma, nominal 90 ng∙mL^−1, 15 d, −80 °C), 93.76%; in data set [7] (plasma, nominal 90 ng∙mL^−1, autosample at ambient temperature for 6 h), 92.44%. The “stability, Accuracy” value in data set [7] (plasma, nominal 90 ng∙mL^−1, freeze–thaw (3 circles)) turned out to be 107.22%; in data set [7] (plasma, nominal 800 ng∙mL^−1, 6 h at room temperature), 110.80%; in data set [7] (plasma, nominal 800 ng∙mL^−1, 15 d, −80 °C), 102.22%; in data set [7] (plasma, nominal 800 ng∙mL^−1, autosample at ambient temperature for 6 h), 90.02%; in data set [7] (plasma, nominal 800 ng∙mL^−1, freeze–thaw (3 circles)) it was 106.80%.
